Laboratory results taken from patent publication US20250115600A1, “COVALENT MODIFIERS OF AKT1 AND USES THEREOF” (Terremoto Biosciences, Inc., priority 2022, published 2025).
pIC50: −log10 of the molar value.

How the values were obtained:
AKT1 WT [1] = target: T1, AKT1 WT (Homo sapiens (Human), UniProt P31749); assay: Live cell target engagement (NanoBRET) in HEK293 cells; type: cell-based; conditions: HEK293, 2 hours at 37° C.
Target sequence in this assay (P31749 whole entry): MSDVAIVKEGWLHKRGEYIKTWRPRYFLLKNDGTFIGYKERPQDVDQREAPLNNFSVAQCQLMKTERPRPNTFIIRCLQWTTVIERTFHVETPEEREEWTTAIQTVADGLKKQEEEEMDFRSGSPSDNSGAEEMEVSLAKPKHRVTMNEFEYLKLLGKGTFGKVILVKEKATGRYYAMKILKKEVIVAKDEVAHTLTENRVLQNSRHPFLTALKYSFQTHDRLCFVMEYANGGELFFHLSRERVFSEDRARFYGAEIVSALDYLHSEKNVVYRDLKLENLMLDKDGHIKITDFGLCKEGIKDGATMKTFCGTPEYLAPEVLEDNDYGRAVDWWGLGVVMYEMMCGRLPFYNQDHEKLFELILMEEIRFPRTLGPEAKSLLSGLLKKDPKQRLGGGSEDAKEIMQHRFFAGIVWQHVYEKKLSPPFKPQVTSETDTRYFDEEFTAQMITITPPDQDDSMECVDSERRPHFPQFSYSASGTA

AKT1 WT [2] = target: T1, AKT1 WT; assay: Intact mass spectrometry, covalent complex formation and ARQ-092 competition; type: binding; conditions: protein 1 μM, compound 1.5 μM, 2 hrs at 37° C., NaBH4 reduction; for covalent complex formation with AKT1 WT protein: absence of competitor; for covalent complex formation with AKT1 WT protein in presence of competitor: with ARQ092 (50 μM)
Description: (§1) AKT1 WT or AKT1 E17K (1 μM) was treated with a compound from Table 1 (1.5 μM) for 2 hrs at 37° C., with and without ARQ092 (50 μM) competitor as a specificity control. Reversible imines were captured by reductive amination with 5 mM NaBH4 for 5 min. Reduction reactions were quenched by diluting the sample in equal volume acetonitrile+1% TFA, then analyzed by LCMS.
(§2) FIGS. 1 to 25 provide intact mass spectra for AKT1 WT protein and AKT1 E17K mutant protein after incubation with compounds of the present disclosure and subsequent borohydride reduction. […] Further, FIGS. 1 to 10, 12, and 14 to 25 each provide intact mass spectra following the incubation of an AKT1 protein with a compound of the present disclosure both in the absence of a competitor molecule (i.e., ARQ-092, a molecule known to bind to and inhibit the function of AKT1); and in the presence of a significant stoichiometric excess of a competitor molecule.
Target sequence in this assay (P31749 2-480): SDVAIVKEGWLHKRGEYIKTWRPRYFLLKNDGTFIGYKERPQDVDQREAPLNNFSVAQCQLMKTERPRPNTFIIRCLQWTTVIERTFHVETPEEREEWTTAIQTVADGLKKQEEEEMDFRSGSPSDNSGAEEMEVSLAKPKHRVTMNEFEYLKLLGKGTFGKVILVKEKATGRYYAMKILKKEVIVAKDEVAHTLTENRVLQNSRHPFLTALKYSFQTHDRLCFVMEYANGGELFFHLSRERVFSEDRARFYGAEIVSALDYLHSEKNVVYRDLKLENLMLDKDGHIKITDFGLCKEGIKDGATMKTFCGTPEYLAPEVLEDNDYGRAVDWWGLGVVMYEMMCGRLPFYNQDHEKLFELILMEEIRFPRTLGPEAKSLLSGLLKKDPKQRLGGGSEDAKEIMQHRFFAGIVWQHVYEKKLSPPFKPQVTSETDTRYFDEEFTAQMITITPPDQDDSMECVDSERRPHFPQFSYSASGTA

AKT1 E17K mutant protein = AKT1 E17K mutant protein (Homo sapiens (Human), UniProt P31749, E17K); assay: as above; type: binding; conditions: for selectivity of complex formation, AKT1 E17K versus AKT1 WT: comparison of the spectra without competitor; for covalent complex formation with AKT1 E17K mutant protein / covalent complex formation with AKT1 E17K mutant protein in presence of competitor: protein 1 μM, compound 1.5 μM, 2 hrs at 37° C., NaBH4 reduction; for covalent complex formation with AKT1 E17K mutant protein: absence of competitor; for covalent complex formation with AKT1 E17K mutant protein in presence of competitor: with ARQ092 (50 μM)
Chain of AKT1 E17K mutant protein (P31749 2-480 E17K): as the sequence (P31749 2-480) above, with E16K counted along it
Description: as §1, §2

AKT1 E17K = AKT1 E17K (Homo sapiens (Human), UniProt P31749, E17K); assay: Live cell target engagement (NanoBRET) in HEK293 cells; type: cell-based; conditions: for pIC50: HEK293, 2 hours at 37° C.
Chain of AKT1 E17K (P31749 whole entry E17K): as the sequence (P31749 whole entry) above, with E17K counted along it

AKT2 = AKT2 (Homo sapiens (Human), UniProt P31751); assay: as above; type: cell-based; conditions: HEK293, 2 hours at 37° C.
Chain of AKT2 (P31751 whole entry): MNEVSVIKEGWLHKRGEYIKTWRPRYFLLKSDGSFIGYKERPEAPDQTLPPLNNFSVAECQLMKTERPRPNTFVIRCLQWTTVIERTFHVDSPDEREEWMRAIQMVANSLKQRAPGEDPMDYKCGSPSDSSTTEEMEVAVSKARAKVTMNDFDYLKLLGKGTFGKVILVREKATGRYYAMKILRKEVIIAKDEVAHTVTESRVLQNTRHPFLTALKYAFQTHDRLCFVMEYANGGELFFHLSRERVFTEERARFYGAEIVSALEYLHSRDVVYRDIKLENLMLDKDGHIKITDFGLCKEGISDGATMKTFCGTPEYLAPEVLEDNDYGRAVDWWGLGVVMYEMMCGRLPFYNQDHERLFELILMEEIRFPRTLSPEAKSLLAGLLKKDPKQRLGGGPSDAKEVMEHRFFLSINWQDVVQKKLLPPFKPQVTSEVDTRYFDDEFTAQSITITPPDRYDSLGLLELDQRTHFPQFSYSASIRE

Row | Compound | pIC50 (AKT1 WT [1]) | AKT1 E17K IC50: Selectivity vs AKT1 WT (AKT1 E17K) | AKT1 E17K IC50: Selectivity vs AKT2 (AKT1 E17K) | pIC50 (AKT1 E17K) | pIC50 (AKT2) | covalent complex formation with AKT1 WT protein (AKT1 WT [2]) | covalent complex formation with AKT1 WT protein in presence of competitor (AKT1 WT [2]) | selectivity of complex formation, AKT1 E17K versus AKT1 WT (AKT1 E17K mutant protein) | covalent complex formation with AKT1 E17K mutant protein (AKT1 E17K mutant protein) | covalent complex formation with AKT1 E17K mutant protein in presence of competitor (AKT1 E17K mutant protein)
1 | Nc1ncccc1-c1nc2ccc(-c3cccc(N4CCOCC4)c3)nc2n1-c1ccc(CNC(=O)c2ccc(O)c(C=O)c2)cc1 [Example 20, N-(4-(2-(2-aminopyridin-3-yl)-5-(3-morpholinophenyl)-3H-imidazo[4,5-b]pyridin-3-yl)benzyl)-3-formyl-4-hydroxybenzamide] | > 7.00 | 2 | 6 | > 7.00 | > 7.00 | presence of a covalent complex | Essentially no covalent complex formation | selective for complex formation with AKT1 E17K | significant presence of a covalent complex | Essentially no covalent complex formation
2 | Nc1ncccc1-c1nc2ccc(-c3ccccc3)nc2n1-c1ccc(CNC(=O)c2cc(Cl)c(O)c(C=O)c2)cc1 [Compound 52, N-(4-(2-(2-aminopyridin-3-yl)-5-phenyl-3H-imidazo[4,5-b]pyridin-3-yl)benzyl)-3-chloro-5-formyl-4-hydroxybenzamide] | > 7.00 | 1.2 | 11 | > 7.00 | 6.30 to 7.00 | only peaks corresponding to unmodified WT protein | only peaks corresponding to unmodified WT protein | selective for complex formation with AKT1 E17K | presence of a covalent complex | Essentially no covalent complex formation
3 | Nc1ncccc1-c1nc2ccc(-c3ccccc3)nc2n1-c1ccc(CCNCc2ccc(C=O)c(O)c2)cc1 [Compound 72, 4-{[(2-{4-[2-(2-aminopyridin-3-yl)-5-phenylimidazo[4,5-b]pyridin-3-yl]phenyl}ethyl)amino]methyl}-2-hydroxybenzaldehyde] | > 7.00 | 1.7 | 18 | > 7.00 | > 7.00 | significant presence of a covalent complex | Essentially no covalent complex formation |  | significant presence of a covalent complex | significantly smaller level of covalent complex formation
4 | Nc1ncccc1-c1nc2ccc(-c3ccccc3)nc2n1-c1ccc(CC(=O)NCc2ccc(C=O)c(O)c2)cc1 [Compound 58, 2-{4-[2-(2-aminopyridin-3-yl)-5-phenylimidazo[4,5-b]pyridin-3-yl]phenyl}-N-[(4-formyl-3-hydroxyphenyl)methyl]acetamide] | > 7.00 | 8.6 | 410 | > 7.00 | < 6.30 | presence of a covalent complex | Essentially no covalent complex formation |  | significant presence of a covalent complex | Essentially no covalent complex formation

Second part, led by results:

Row | pIC50 (AKT1 WT [1]) | AKT1 E17K IC50: Selectivity vs AKT1 WT (AKT1 E17K) | AKT1 E17K IC50: Selectivity vs AKT2 (AKT1 E17K) | pIC50 (AKT1 E17K) | pIC50 (AKT2) | Compound | covalent complex formation with AKT1 WT protein (AKT1 WT [2]) | covalent complex formation with AKT1 WT protein in presence of competitor (AKT1 WT [2]) | selectivity of complex formation, AKT1 E17K versus AKT1 WT (AKT1 E17K mutant protein) | covalent complex formation with AKT1 E17K mutant protein (AKT1 E17K mutant protein) | covalent complex formation with AKT1 E17K mutant protein in presence of competitor (AKT1 E17K mutant protein)
5 | > 7.00 | 2.7 | 48 | > 7.00 | 6.30 to 7.00 | Nc1ncccc1-c1nc2ccc(-c3ccccc3)nc2n1-c1ccc(CNC(=O)c2cc(F)c(O)c(C=O)c2)cc1 [Compound 53, N-({4-[2-(2-aminopyridin-3-yl)-5-phenylimidazo[4,5-b]pyridin-3-yl]phenyl}methyl)-3-fluoro-5-formyl-4-hydroxybenzamide] | only peaks corresponding to unmodified WT protein | only peaks corresponding to unmodified WT protein | selective for complex formation with AKT1 E17K | presence of a covalent complex | Essentially no covalent complex formation
6 | > 7.00 | 1.2 | 4.4 | > 7.00 | > 7.00 | Nc1ncccc1-c1nc2ccc(-n3cccn3)nc2n1-c1ccc(C2(NC(=O)Cc3ccc(C=O)c(O)c3F)CC2)cc1 [Compound 141, N-(1-{4-[2-(2-aminopyridin-3-yl)-5-(pyrazol-1-yl)imidazo[4,5-b]pyridin-3-yl]phenyl}cyclopropyl)-2-(2-fluoro-4-formyl-3-hydroxyphenyl)acetamide] | presence of a covalent complex | Essentially no covalent complex formation | selective for complex formation with AKT1 E17K | significant presence of a covalent complex | Essentially no covalent complex formation
7 | 6.30 to 7.00 | 1.7 | 3.7 | 6.30 to 7.00 | < 6.30 | Nc1ncccc1-c1nc2ccc(-c3ccccc3)nc2n1-c1ccc(CNC(=O)Cc2ccc(C=O)c(O)n2)cc1 [Compound 75, N-(4-(2-(2-aminopyridin-3-yl)-5-phenyl-3H-imidazo[4,5-b]pyridin-3-yl)benzyl)-2-(5-formyl-6-hydroxypyridin-2-yl)acetamide] | only peaks corresponding to unmodified WT/mutant protein |  |  | only peaks corresponding to unmodified WT/mutant protein | 
8 | < 6.30 | 93 | 490 | > 7.00 | < 6.30 | Nc1ncccc1-c1nc2ccc(-c3ccccc3)nc2n1-c1ccc(CNC(=O)C2(c3cnc(C=O)c(O)c3)CC2)cc1 [Compound 56, N-({4-[2-(2-aminopyridin-3-yl)-5-phenylimidazo[4,5-b]pyridin-3-yl]phenyl}methyl)-1-(6-formyl-5-hydroxypyridin-3-yl)cyclopropane-1-carboxamide] | presence of a covalent complex | Essentially no covalent complex formation |  | small presence of a covalent complex | Essentially no covalent complex formation
